Data: ChEMBL document CHEMBL1201862, “PubChem BioAssay data set” (2004)
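Following 48 hours of exposure in 96-well plates, responses at five concentrations were used to interpolate endpoints linearly. The concentration for 50% growth inhibition is given as GI50.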 Calls of active or inactive are those of the source. Rule as the data show it: active = GI50 up to about 1.1 µM and inactive = higher.

How the values were obtained:
Experiment in all cases: NCI-60 cell line screen, 48 h
[1] = system: A498
[2] = system: CAKI-1
[3] = system: EKVX
[4] = system: HL-60
[5] = system: HT-29
[6] = system: Hs-578T
[7] = system: IGROV-1
[8] = system: KM12
[9] = system: M14
[10] = system: MOLT-4
[11] = system: NCI-H226
[12] = system: RXF 393
[13] = system: SF-268
[14] = system: SK-MEL-2
[15] = system: SK-MEL-5
[16] = system: TK-10
[17] = system: UACC-257
[18] = system: SF-539
[19] = system: SK-OV-3
[20] = system: DU-145

Measured: GI50

O=c1[nH]c2nc(S)nc(S)c2[nH]1
inactive: [1] > 100 µM | [2] > 100 µM | [3] > 100 µM | [4] > 100 µM | [5] > 100 µM | [6] > 100 µM | [7] > 100 µM | [8] > 100 µM | [9] > 100 µM | [10] > 100 µM | [11] > 100 µM | [12] > 100 µM | [13] > 100 µM | [14] > 100 µM | [15] > 100 µM | [16] > 100 µM | [17] > 100 µM

COC(=O)CCc1cccnc1/C=N/O
inactive: [1] > 100 µM | [2] > 100 µM | [3] > 100 µM | [4] > 100 µM | [5] > 100 µM | [7] > 100 µM | [8] > 100 µM | [9] > 100 µM | [10] > 100 µM | [11] > 100 µM | [12] > 100 µM | [13] > 100 µM | [18] > 100 µM | [14] > 100 µM | [15] > 100 µM | [19] > 100 µM | [16] 55.7 µM | [17] > 100 µM

CC(=O)NNc1nc(C)c(C(=O)NNC(=O)C(=O)Nc2ccc(C)c(C)c2)s1
inactive: [1] > 100 µM | [2] > 100 µM | [3] > 100 µM | [4] 70.8 µM | [5] > 100 µM | [7] > 100 µM | [8] 42.5 µM | [9] > 100 µM | [10] 39.6 µM | [11] > 100 µM | [12] > 100 µM | [13] > 100 µM | [18] > 100 µM | [14] > 100 µM | [15] > 100 µM | [19] > 100 µM | [16] > 100 µM | [17] > 100 µM

C=C1c2nc3ccccc3n2C=C(c2ccc(OC)cc2)N1c1ccc(OC)cc1
inactive: [1] 17.9 µM | [2] 4.62 µM | [20] 26.9 µM | [3] 25.5 µM | [4] > 100 µM | [7] 10.6 µM | [8] 14.6 µM | [9] 39.8 µM | [10] > 100 µM | [11] 18.7 µM | [12] 9.98 µM | [18] 7.16 µM | [14] 29.3 µM | [15] 7.45 µM | [19] 16.1 µM | [16] 10.8 µM | [17] 34 µM

COc1cc(-c2nc3cc(F)ccc3s2)ccc1O
inactive: [1] 18.5 µM | [2] 28.2 µM | [20] 82.8 µM | [3] 5.73 µM | [4] 41 µM | [5] 39.3 µM | [7] 10.9 µM | [8] 18.6 µM | [9] 58.3 µM | [10] 56.8 µM | [11] 26.4 µM | [12] > 100 µM | [13] 41.4 µM | [18] 49.4 µM | [14] > 100 µM | [15] 12.1 µM | [19] 35.2 µM | [16] 33.7 µM | [17] 19 µM

CC1(C)CC(O)CC(C)(C)N1O [TEMPOL HYDROXYLAMINE]
inactive: [1] > 100 µM | [2] > 100 µM | [20] > 100 µM | [3] > 100 µM | [5] > 100 µM | [7] > 100 µM | [8] > 100 µM | [9] > 100 µM | [10] > 100 µM | [12] > 100 µM | [13] > 100 µM | [18] > 100 µM | [14] > 100 µM | [15] > 100 µM | [19] > 100 µM | [16] > 100 µM | [17] > 100 µM
